Measured values published in patent publication US11980596B2 (priority 2017, dated 2024).

Test system: subjects with TRD
Type: in vivo, human
Conditions: post dose
Protocol: Transient blood pressure increases peaked for the esketamine group at approximately 40 minutes post dose and returned closer to predose levels by 1.5 hours post dose.

CN[C@]1(c2ccccc2Cl)CCCCC1=O [esketamine, (S)-2-(2-chlorophenyl)-2-(methylamino)cyclohexanone]
Blood pressure returned closer to predose levels by: ≤ 1.5 h
Time of peak of transient blood pressure increases: approximately 40 minutes
